# Results as given in patent publication US20230391756A1, “NEW COMPOUND” (JANSSEN PHARMACEUTICA NV, priority 2020, published 2023).
# What was measured:
# [1] = test system: NLRP3 inflammasome pathway (IL-1β); test: PBMC assay: IL-1β release after LPS stimulation; assay type: cell-based; settings: human PBMCs, 100 ng/ml LPS for 6 hrs, MSD
# Description: The activity of a compound according to the present invention can be assessed by in vitro methods.
# (§1) Peripheral venous blood was collected from healthy individuals and human peripheral blood mononuclear cells (PBMCs) were isolated from blood by Ficoll-Histopaque (Sigma-Aldrich, A0561) density gradient centrifugation. After isolation, PBMCs were stored in liquid nitrogen for later use. Upon thawing, PBMC cell viability was determined in growth medium (RPMI media supplemented with 10% fetal bovine serum, 1% Pen-Strep and 1% L-glutamine). […] PBMCs were added at a density of 7.5×10^4 cells per well and incubated for 30 min in a 5% CO2 incubator at 37° C. LPS stimulation was performed by addition of 100 ng/ml LPS (final concentration, Invivogen, tlrl-smlps) for 6 hrs followed by collection of cellular supernatant and the analysis of IL-1β (μM) and TNF cytokines levels (μM) via MSD technology according to manufacturers' guidelines (MSD, K151A0H).
# TNF = test: PBMC assay: TNF cytokine level after LPS stimulation; assay type: cell-based; settings: human PBMCs, 100 ng/ml LPS for 6 hrs, MSD, read-out: TNFα EC50
# Description: as §1
SMILES,IC50 [1] [nM],melting point [°C],EC50 (TNF) [nM]
CCn1nc(CC(=O)N[C@H]2C[C@@](C)(O)C2)c(=O)c2ccc(Br)cc21 [F-5],250,203.3,> 20000
CCn1nc(CC(=O)Nc2ccc3nncn3c2)c(=O)c2ccc(Br)cc21 [F-6],102,294.3,> 20000
Cc1ccn2nc(NC(=O)Cc3nn(C(C)C)c4cc(C(F)(F)F)ccc4c3=O)nc2c1 [F-122],354,,> 20000
CC(C)n1nc(CC(=O)Nc2cn3cccnc3n2)c(=O)c2ccc(C(F)(F)F)cc21 [F-123],1970,,> 20000
CC(C)n1nc(CC(=O)Nc2nc3cnccn3n2)c(=O)c2ccc(C(F)(F)F)cc21 [F-124],123,,> 20000
CC(C)n1nc(CC(=O)Nc2cc3ncccn3n2)c(=O)c2ccc(C(F)(F)F)cc21 [F-125],2590,,> 20000
CC(C)n1nc(CC(=O)Nc2cn3ccncc3n2)c(=O)c2ccc(C(F)(F)F)cc21 [F-126],5620,,> 20000
CC(C)n1nc(CC(=O)Nc2nc3cccnc3o2)c(=O)c2ccc(C(F)(F)F)cc21 [F-127],4350,,> 20000
Cc1ccn2nc(NC(=O)Cc3nn(C(C)C)c4cc(C(F)(F)F)ccc4c3=O)nc2n1 [F-128],660,,> 20000
CC(C)n1nc(CC(=O)Nc2nc3ncc(Br)cn3n2)c(=O)c2ccc(C(F)(F)F)cc21 [F-129],3230,,> 20000
"CC(C)n1nc(CC(=O)Nc2cc(F)[nH]c(=O)c2)c(=O)c2ccc(C(F)(F)F)cc21 [F-130, N-(6-fluoro-2-oxo-1,2-dihydropyridin-4-yl)-2-(1-isopropyl-4-oxo-7-(trifluoromethyl)-1,4-dihydrocinnolin-3-yl)acetamide]",860,,11200

# Results, then the compound that gave them:
IC50 [1] [nM],melting point [°C],EC50 (TNF) [nM],SMILES
656,,> 20000,CC(C)n1nc(CC(=O)Nc2ccc3nc(C(F)(F)F)cn3c2)c(=O)c2ccc(C(F)(F)F)cc21 [F-131]
160,,15600,"CC(C)n1nc(CC(=O)Nc2ccc3nncn3n2)c(=O)c2ccc(C3CC3)cc21 [F-133, N-([1,2,4]triazolo[4,3-b]pyridazine-6-yl)-2-(7-cyclopropyl-1-isopropyl-4-oxo-1,4-dihydrocinnolin-3-yl)acetamide]"
48,,> 20000,CC(C)n1nc(CC(=O)Nc2ccc3nncn3n2)c(=O)c2ccc(Br)cc21 [F-134]
590,,> 20000,Cc1nnc2ccc(NC(=O)Cc3nn(C(C)C)c4cc(C(F)(F)F)ccc4c3=O)nn12 [F-135]
280,,4460,O=C(Cc1nn(C2CC2)c2cc(C3CC3)ccc2c1=O)Nc1ccc2nncn2n1 [F-137]
240,,3430,CC(C)n1nc(CC(=O)Nc2ccc3nccn3n2)c(=O)c2ccc(C(C)(F)F)cc21 [F-138]
143,,4880,CC(C)c1ccc2c(=O)c(CC(=O)Nc3ccc4nncn4n3)nn(C3CC3)c2c1 [F-140]
119,,~12800,CCn1nc(CC(=O)Nc2ccc3nncn3n2)c(=O)c2ccc(C(C)C)cc21 [F-142]
109,,7580,CC(C)n1nc(CC(=O)Nc2ccc3nncn3n2)c(=O)c2ccc(C(F)(F)F)cc21 [F-143]
78,,> 20000,O=C(Cc1nn(C2CC2)c2cc(Br)ccc2c1=O)Nc1ccc2nncn2n1 [F-144]
190,,> 20000,"CC(C)n1nc(CC(=O)Nc2ccc3nncn3c2)c(=O)c2ccc(C(C)(F)F)cc21 [F-149, N-([1,2,4]triazolo[4,3-a]pyridin-6-yl)-2-(7-(1,1-difluoroethyl)-1-isopropyl-4-oxo-1,4-dihydrocinnolin-3-yl)acetamide]"
2450,,17100,"CC(C)n1nc(NC(=O)Nc2ccc3nncn3c2)c(=O)c2ccc(C(F)(F)F)cc21 [F-150, 1-([1,2,4]triazolo[4,3-a]pyridin-6-yl)-3-(1-isopropyl-4-oxo-7-(trifluoromethyl)-1,4-dihydrocinnolin-3-yl)urea]"
